Data on five compounds can be found in patent US20250248973A1, “CANNABINOID RECEPTOR 1 ANTAGONISTS/INVERSE AGONISTS AND USES THEREOF” (Corbus Pharmaceuticals, Inc., priority 2022, published 2025).

The IC50 is the concentration that inhibits the measured activity by half.

The nature of data set [1]: Pharmacokinetics following oral administration in male C57BL/6 mice: brain/plasma ratio. The class given is in vivo. The settings on record: single PO 10 mg/kg, compared to rimonabant 10 mg/kg PO. Here is the method:
FIG. 2 provides graphs showing the brain/plasma ratio of orally administered Compound 9 (10 mg/kg) in comparison to orally administered rimonabant (10 mg/kg) C57BL/6J in mice, as measured by area under the curve from 0 to 24 hours (AUC0-24) and maximum concentration (Cmax) post administration.
Example 5. Pharmacokinetics of Following Oral Administration in Male C57BL/6 Mice
A study was conducted to compare the brain/plasma ratios of Compound 9 and rimonabant following oral administration in mice.
Fasted overnight with free access to water and fed 4 hr post dosing
PO administration via oral gavage
Group 2: PO, 10 mg/kg, 10 mL/kg
0.5% MC (400 cp) in purified water (1 mg/mL)
Terminal sampling for brain @0.25, 0.5, 1, 2, 4, 8 and 24 hr, 7 time points. (N=3/timepoint, N=21/arm); collect brains after perfusion.

Data set [2] has as its target Human CB1 Receptor-1 (hCB1) (Homo sapiens (Human), UniProt P21554). Put plainly: hCB1 Gai cyclic AMP (cAMP) TR-FRET assay, antagonism of EC80 CP55940 with forskolin. Particulars: hCB1 cells, 30 min pre-incubation. The class given is cell-based. The method, boiled down:
(§1)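 Cells expressing hCB1 or hCB1b were preincubated with compound for 30 min at rt, then stimulated with an EC80 concentration of CP55940 plus forskolin for 20 min at 37C. cAMP was measured by TR-FRET using Eu-cAMP and 650-labeled anti-cAMP in lysis buffer, with emission at 620/665 nm. IC50 values are binned by category.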
A general note: Time-resolved FRET reads energy transfer from a long-lived donor to a nearby acceptor.

The target in data set [3] is Human CB1 Receptor-1b (hCB1b) (Homo sapiens (Human), UniProt P21554). Put plainly: hCB1b Gai cyclic AMP (cAMP) TR-FRET assay, antagonism of EC80 CP55940 with forskolin. It counts as cell-based. The settings on record: hCB1b cells, 30 min pre-incubation, read-out: CB1b IC50. The method, boiled down:
as §1

Chain of Human CB1 Receptor-1b (hCB1b) (P21554 other isoform, or with tags, fused parts or gaps): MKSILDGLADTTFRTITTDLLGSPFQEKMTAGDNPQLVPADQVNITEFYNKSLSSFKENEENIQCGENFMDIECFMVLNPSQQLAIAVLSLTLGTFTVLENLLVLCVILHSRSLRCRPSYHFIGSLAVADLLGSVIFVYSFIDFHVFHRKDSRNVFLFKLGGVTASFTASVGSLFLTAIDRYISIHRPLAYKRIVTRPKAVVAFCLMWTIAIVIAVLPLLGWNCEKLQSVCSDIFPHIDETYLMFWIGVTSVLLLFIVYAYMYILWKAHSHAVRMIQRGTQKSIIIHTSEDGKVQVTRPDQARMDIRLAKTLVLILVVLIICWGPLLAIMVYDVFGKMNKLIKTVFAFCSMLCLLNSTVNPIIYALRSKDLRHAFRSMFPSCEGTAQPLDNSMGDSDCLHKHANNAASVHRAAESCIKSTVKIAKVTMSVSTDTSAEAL
Chain of Human CB1 Receptor-1 (hCB1) (P21554 whole entry): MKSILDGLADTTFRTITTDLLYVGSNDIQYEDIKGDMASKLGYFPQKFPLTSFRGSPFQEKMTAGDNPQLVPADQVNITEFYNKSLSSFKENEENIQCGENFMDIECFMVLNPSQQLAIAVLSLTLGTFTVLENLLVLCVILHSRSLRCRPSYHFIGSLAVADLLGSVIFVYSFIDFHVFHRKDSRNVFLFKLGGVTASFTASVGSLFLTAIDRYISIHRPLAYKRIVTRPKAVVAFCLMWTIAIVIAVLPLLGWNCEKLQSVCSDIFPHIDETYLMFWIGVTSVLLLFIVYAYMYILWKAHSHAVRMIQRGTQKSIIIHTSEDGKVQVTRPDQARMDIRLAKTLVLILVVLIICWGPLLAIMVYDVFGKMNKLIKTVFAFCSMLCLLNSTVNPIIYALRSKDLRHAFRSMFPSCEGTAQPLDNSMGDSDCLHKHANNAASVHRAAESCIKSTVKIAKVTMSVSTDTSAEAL

Take `NS(=O)(=O)CCNC(=NS(=O)(=O)c1ccc(C(F)(F)F)cc1)N1C[C@H](c2ccccc2)C(c2ccc(Cl)cc2)=N1` [Compound 9, (S,E)-3-(4-chlorophenyl)-4-phenyl-N-(2-sulfamoylethyl)-N′-((4-(trifluoromethyl)phenyl)sulfonyl)-4,5-dihydro-1H-pyrazole-1-carboximidamide]: the “blood-brain-barrier penetration (brain/plasma ratio by AUC0-24 and Cmax)” value in data set [1] is “substantially reduced blood-brain-barrier penetration as compared to rimonabant”. Further, the half-inhibitory concentration (IC50) in data set [2] and in data set [3] was less than 100 nM in each case.

Take `NS(=O)(=O)N1CC(N/C(=N\S(=O)(=O)c2ccc(Cl)cc2)N2C[C@H](c3ccccc3)C(c3ccc(Cl)cc3)=N2)C1` [Compound 191, (S,E)-3-(4-chlorophenyl)-N′-((4-chlorophenyl)sulfonyl)-4-phenyl-N-(1-sulfamoylazetidin-3-yl)-4,5-dihydro-1H-pyrazole-1-carboximidamide]: the concentration for half-maximal inhibition (IC50) in data set [2] and in data set [3] was less than 100 nM each time.

In the case of `NS(=O)(=O)O[C@H]1C[C@@H](N/C(=N\S(=O)(=O)c2ccc(C(F)(F)F)cc2)N2C[C@@H](c3ccccc3)C(c3ccc(Cl)cc3)=N2)C1` [Compound 228, (1R,3s)-3-((R,E)-3-(4-chlorophenyl)-4-phenyl-N′-((4-(trifluoromethyl)phenyl)sulfonyl)-4,5-dihydro-1H-pyrazole-1-carboximidamido)cyclobutyl sulfamate], the IC50 in data set [2] was greater than 500 nM; in data set [3] it was less than 100 nM.

On to `NS(=O)(=O)NC1(CN/C(=N\S(=O)(=O)c2ccc(C(F)(F)F)cc2)N2C[C@H](c3ccccc3)C(c3ccc(Cl)cc3)=N2)CC1` [Compound 235, (S,E)-3-(4-chlorophenyl)-4-phenyl-N-((1-(sulfamoylamino)cyclopropyl)methyl)-N′-((4-(trifluoromethyl)phenyl)sulfonyl)-4,5-dihydro-1H-pyrazole-1-carboximidamide], for which the concentration for half-maximal inhibition (IC50) in data set [2] was 100 to 500 nM; in data set [3] it was less than 100 nM.

Regarding `NS(=O)(=O)N1CC[C@@H](N/C(=N/S(=O)(=O)c2ccc(Cl)cc2)N2C[C@H](c3ccccc3)C(c3ccc(Cl)cc3)=N2)C1` [Compound 247, (S,Z)-3-(4-chlorophenyl)-N′-((4-chlorophenyl)sulfonyl)-4-phenyl-N-((R)-1-sulfamoylpyrrolidin-3-yl)-4,5-dihydro-1H-pyrazole-1-carboximidamide], the results for the IC50 in data set [2] and in data set [3] were 100 to 500 nM and less than 100 nM, respectively.
